Where only a bound is given, the exact number is not on record here.

This assay addresses T1, human TLR8 (Homo sapiens, UniProt Q9NR97).
T1 sequence (Q9NR97 27-1041): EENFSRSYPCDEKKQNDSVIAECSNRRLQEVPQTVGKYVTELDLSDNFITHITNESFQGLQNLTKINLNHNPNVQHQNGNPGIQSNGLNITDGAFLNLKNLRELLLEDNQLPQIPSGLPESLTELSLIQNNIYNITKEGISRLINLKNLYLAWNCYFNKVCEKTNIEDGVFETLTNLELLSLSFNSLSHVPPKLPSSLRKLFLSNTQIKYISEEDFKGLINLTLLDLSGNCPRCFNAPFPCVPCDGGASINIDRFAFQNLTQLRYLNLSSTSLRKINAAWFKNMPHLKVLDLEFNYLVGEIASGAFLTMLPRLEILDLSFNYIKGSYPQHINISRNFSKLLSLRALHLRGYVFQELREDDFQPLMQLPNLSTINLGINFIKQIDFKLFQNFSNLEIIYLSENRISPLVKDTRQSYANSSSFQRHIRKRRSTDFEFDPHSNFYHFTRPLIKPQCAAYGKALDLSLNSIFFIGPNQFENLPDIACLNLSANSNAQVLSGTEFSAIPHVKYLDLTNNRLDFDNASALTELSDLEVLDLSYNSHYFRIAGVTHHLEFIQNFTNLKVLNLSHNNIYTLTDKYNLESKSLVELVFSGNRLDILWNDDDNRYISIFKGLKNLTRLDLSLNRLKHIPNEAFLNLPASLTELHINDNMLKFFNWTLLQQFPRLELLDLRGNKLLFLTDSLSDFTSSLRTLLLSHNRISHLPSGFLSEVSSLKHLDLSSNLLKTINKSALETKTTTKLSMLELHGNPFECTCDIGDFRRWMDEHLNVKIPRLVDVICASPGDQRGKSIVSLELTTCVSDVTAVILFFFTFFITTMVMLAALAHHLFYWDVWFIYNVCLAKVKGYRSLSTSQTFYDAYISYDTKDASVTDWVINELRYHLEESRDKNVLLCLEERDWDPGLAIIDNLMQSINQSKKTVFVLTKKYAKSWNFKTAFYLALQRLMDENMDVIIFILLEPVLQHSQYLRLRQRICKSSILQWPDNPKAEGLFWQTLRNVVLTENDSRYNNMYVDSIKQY
Kind of assay: HEK293-Blue-hTLR-8 cells assay (SEAP reporter, R848 stimulation). The assay is classed as cell-based. The settings on record: HEK293-Blue-hTLR8 cells, R848 ligand, 20 hrs; read-out: HEK/hTLR8 IC50. The method, then:
The following tests were carried out in order to determine the activity of the compounds of formula (I), (Ia) or (Ib) in HEK293-Blue-hTLR-7/8/9 cells assay.
HEK293-Blue-hTLR-8 Cells Assay:
A stable HEK293-Blue-hTLR-8 cell line was purchased from InvivoGen (Cat. #: hkb-htlr8, San Diego, California, USA). These cells were originally designed for studying the stimulation of human TLR8 by monitoring the activation of NF-κB. A SEAP (secreted embryonic alkaline phosphatase) reporter gene was placed under the control of the IFN-β minimal promoter fused to five NF-κB and AP-1-binding sites. The SEAP was induced by activating NF-κB and AP-1 via stimulating HEK-Blue hTLR8 cells with TLR8 ligands. Therefore the reporter expression was declined by TLR8 antagonist under the stimulation of a ligand, such as R848, for incubation of 20 hrs. The cell culture supernatant SEAP reporter activity was determined using QUANTI-Blue™ kit (Cat. #: rep-qb1, Invivogen, San Diego, Ca., USA) at a wavelength of 640 nm, a detection medium that turns purple or blue in the presence of alkaline phosphatase.
HEK293-Blue-hTLR8 cells were incubated at a density of 250,000˜450,000 cells/mL in a volume of 170 μL in a 96-well plate in Dulbecco's Modified Eagle's medium (DMEM) containing 4.5 g/L glucose, 50 U/mL penicillin, […], […], 2 mM L-glutamine, 10% (v/v) heat-inactivated fetal bovine serum with addition of 20 μL test compound in a serial dilution in the presence of final DMSO at 1% and 10 μL of 60 uM R848 in above DMEM, perform incubation under 37° C. in a CO2 incubator for 20 hrs. Then 20 μL of the supernatant from each well was incubated with 180 μL Quanti-blue substrate solution at 37° C. for 2 hrs and the absorbance was read at 620-655 nm using a spectrophotometer. The signaling pathway that TLR8 activation leads to downstream NF-κB activation has been widely accepted, and therefore similar reporter assay was modified for evaluating TLR8 antagonist.
For `C[C@@H]1CN(c2ccc(C#N)c3ncccc23)C[C@@H]2CCN(c3ccc(N4CCNCC4)nc3)CCN21` [Example 1, 5-[(4R,10aS)-4-methyl-8-(6-piperazin-1-yl-3-pyridyl)-1,3,4,6,7,9,10,10a-octahydropyrazino [1,2-d][1,4]diazepin-2-yl]quinoline-8-carbonitrile], the IC50 is 61.7 nM.
In the case of `C[C@@H]1CN(c2ccc(C#N)c3ncccc23)C[C@@H]2CCN(c3cnc(N4CCNCC4)nc3)CCN21` [Example 2, 5-[(4R,10aS)-4-methyl-8-(2-piperazin-1-ylpyrimidin-5-yl)-1,3,4,6,7,9,10,10a-octahydropyrazino[1,2-d][1,4]diazepin-2-yl]quinoline-8-carbonitrile], the IC50 turned out to be 25.2 nM.
`C[C@@H]1CN(c2ccc(C#N)c3ncccc23)C[C@@H]2CCN(c3ccc([C@H]4CNCCO4)cc3)CCN21` [Example 3, 5-[(4R,10aS)-4-methyl-8-[4-[(2S)-morpholin-2-yl]phenyl]-1,3,4,6,7,9,10,10a-octahydropyrazino[1,2-d][1,4]diazepin-2-yl]quinoline-8-carbonitrile]: the IC50 is 4.8 nM.
In the case of `C[C@@H]1CN(c2ccc(C#N)c3ncccc23)C[C@@H]2CCN(c3cncc4c3CCNC4)CCN21` [Example 4, 5-[(4R,10aS)-4-methyl-8-(5,6,7,8-tetrahydro-2,7-naphthyridin-4-yl)-1,3,4,6,7,9,10,10a-octahydropyrazino[1,2-d][1,4]diazepin-2-yl]quinoline-8-carbonitrile], the IC50 came to 2.4 nM.
As for `C[C@@H]1CN(c2ccc(C#N)c3ncccc23)C[C@@H]2CCN(c3ccc4c(n3)CNCC4)CCN21` [Example 5, 5-[(4R,10aS)-4-methyl-8-(5,6,7,8-tetrahydro-1,7-naphthyridin-2-yl)-1,3,4,6,7,9,10,10a-octahydropyrazino[1,2-d][1,4]diazepin-2-yl]quinoline-8-carbonitrile], the IC50 was 3.9 nM.
Then `C[C@@H]1CN(c2ccc(C#N)c3ncccc23)C[C@@H]2CCN(c3ccc4c(n3)CCNC4)CCN21` [Example 6, 5-[(4R,10aS)-4-methyl-8-(5,6,7,8-tetrahydro-1,6-naphthyridin-2-yl)-1,3,4,6,7,9,10,10a-octahydropyrazino[1,2-d][1,4]diazepin-2-yl]quinoline-8-carbonitrile], with under 3.2 nM; and `C[C@@H]1CN(c2ccc(C#N)c3ncccc23)C[C@@H]2CCN(c3cc4c(cn3)CNCC4)CCN21` [Example 7, 5-[(4R,10aS)-4-methyl-8-(5,6,7,8-tetrahydro-2,7-naphthyridin-3-yl)-1,3,4,6,7,9,10,10a-octahydropyrazino[1,2-d][1,4]diazepin-2-yl]quinoline-8-carbonitrile], with 1.5 nM; and `C[C@@H]1CN(c2ccc(C#N)c3ncccc23)C[C@@H]2CCN(Cc3cc4c(cn3)CNCC4)CCN21` [Example 8, 5-[(4R,10aS)-4-methyl-8-(5,6,7,8-tetrahydro-2,7-naphthyridin-3-ylmethyl)-1,3,4,6,7,9,10,10a-octahydropyrazino[1,2-d][1,4]diazepin-2-yl]quinoline-8-carbonitrile], with 8.6 nM.
Regarding `C[C@@H]1CN(c2ccc(C#N)c3ncccc23)C[C@@H]2CCN(Cc3cc4c(cn3)CCNC4)CCN21` [Example 9, 5-[(4R,10aS)-4-methyl-8-(5,6,7,8-tetrahydro-2,6-naphthyridin-3-ylmethyl)-1,3,4,6,7,9,10,10a-octahydropyrazino[1,2-d][1,4]diazepin-2-yl]quinoline-8-carbonitrile], the IC50 is 6.4 nM.
Turning to `C[C@@H]1CN(c2ccc(C#N)c3ncccc23)C[C@@H]2CCN(Cc3cnc4c(c3)CNCC4)CCN21` [Example 10, 5-[(4R,10aS)-4-methyl-8-(5,6,7,8-tetrahydro-1,6-naphthyridin-3-ylmethyl)-1,3,4,6,7,9,10,10a-octahydropyrazino[1,2-d][1,4]diazepin-2-yl]quinoline-8-carbonitrile], the IC50 came out at 5.2 nM.
`C[C@@H]1CN(c2ccc(C#N)c3ncccc23)C[C@@H]2CCN(Cc3ccc4c(c3)CCNC4)CCN21` [Example 11, 5-[(4R,10aS)-4-methyl-8-(1,2,3,4-tetrahydroisoquinolin-6-ylmethyl)-1,3,4,6,7,9,10,10a-octahydropyrazino[1,2-d][1,4]diazepin-2-yl]quinoline-8-carbonitrile]: the IC50 came out at 4.2 nM.
Turning to `C[C@@H]1CN(c2ccc(C#N)c3ncccc23)C[C@@H]2CCN(Cc3ccc4c(c3)CNCC4)CCN21` [Example 12, 5-[(4R,10aS)-4-methyl-8-(1,2,3,4-tetrahydroisoquinolin-7-ylmethyl)-1,3,4,6,7,9,10,10a-octahydropyrazino[1,2-d][1,4]diazepin-2-yl]quinoline-8-carbonitrile], the IC50 was found to be 2.7 nM.
Take `C[C@@H]1CN(c2ccc(C#N)c3ncccc23)C[C@@H]2CCN(Cc3ncc(N4CCNCC4)cn3)CCN21` [Example 13, 5-[(4R,10aS)-4-methyl-8-[(5-piperazin-1-ylpyrimidin-2-yl)methyl]-1,3,4,6,7,9,10,10a-octahydropyrazino[1,2-d][1,4]diazepin-2-yl]quinoline-8-carbonitrile]: the IC50 came to 31.7 nM.
Then `C[C@@H]1CN(c2ccc(C#N)c3ncccc23)C[C@@H]2CCN(Cc3cnc(N4CCNCC4)nc3)CCN21` [Example 14, 5-[(4R,10aS)-4-methyl-8-[(2-piperazin-1-ylpyrimidin-5-yl)methyl]-1,3,4,6,7,9,10,10a-octahydropyrazino[1,2-d][1,4]diazepin-2-yl]quinoline-8-carbonitrile], with 4.9 nM.
In the case of `C[C@@H]1CN(c2ccc(C#N)c3ncccc23)C[C@@H]2CCN(Cc3cnc(N4CCNCC4)cn3)CCN21` [Example 15, 5-[(4R,10aS)-4-methyl-8-[(5-piperazin-1-ylpyrazin-2-yl)methyl]-1,3,4,6,7,9,10,10a-octahydropyrazino[1,2-d][1,4]diazepin-2-yl]quinoline-8-carbonitrile], the IC50 turned out to be 8.6 nM.
The value for `C[C@@H]1CN(c2ccc(C#N)c3ncccc23)C[C@@H]2CCN(Cc3cncc(N4CCNCC4)c3)CCN21` [Example 16, 5-[(4R,10aS)-4-methyl-8-[(5-piperazin-1-yl-3-pyridyl)methyl]-1,3,4,6,7,9,10,10a-octahydropyrazino[1,2-d][1,4]diazepin-2-yl]quinoline-8-carbonitrile] was 12.1 nM; that for `C[C@@H]1CN(c2ccc(C#N)c3ncccc23)C[C@@H]2CCN(Cc3ccc(N4CCNCC4)nc3)CCN21` [Example 17, 5-[(4R,10aS)-4-methyl-8-[(6-piperazin-1-yl-3-pyridyl)methyl]-1,3,4,6,7,9,10,10a-octahydropyrazino[1,2-d][1,4]diazepin-2-yl]quinoline-8-carbonitrile] was 3.4 nM; that for `C[C@@H]1CN(c2ccc(C#N)c3ncccc23)C[C@@H]2CCN(Cc3cccc(N4CCNCC4)n3)CCN21` [Example 18, 5-[(4R,10aS)-4-methyl-8-[(6-piperazin-1-yl-2-pyridyl)methyl]-1,3,4,6,7,9,10,10a-octahydropyrazino[1,2-d][1,4]diazepin-2-yl]quinoline-8-carbonitrile] was 8.1 nM.

Source of the values: patent US12421240B2, “Hydropyrazino[1,2-d][1,4]diazepine compounds for the treatment of autoimmune disease” (Hoffmann-La Roche Inc., priority 2019, dated 2025).
